Laboratory results reported in the NIST ThermoML archive (doi:10.1016/j.jct.2016.04.003).

What was measured:
[1] = refractive index (Na D-line) (dimensionless); conditions: 99 kPa, Liquid, Standard Abbe refractometry
[2] = for surface tension liquid-gas: Drop volume; for viscosity: Capillary tube (Ostwald / Ubbelohde) method
[3] = xn = mol fraction of the nth substance listed; conditions: x2 = 0; for surface tension liquid-gas: Drop volume; for viscosity / speed of sound / mass density: 99 kPa, Liquid; for viscosity: Capillary tube (Ostwald / Ubbelohde) method; for speed of sound: Frequency=3 MHz, Sing-around technique in a fixed-path interferometer; for mass density: Vibrating tube method
[4] = refractive index (Na D-line) (dimensionless); xn = mol fraction of the nth substance listed; conditions: 99 kPa, Liquid, Standard Abbe refractometry, x2 = 0

CCCC[n+]1ccccc1.F[B-](F)(F)F [1-butylpyridinium tetrafluoroborate]
Conditions | refractive index
[1], 293.15 K | 1.44719

O [water]
Conditions | refractive index, 293.15 K | refractive index, 303.15 K | refractive index, 313.15 K | refractive index, 323.15 K | surface tension liquid-gas, 293.15 K [mN/m] | surface tension liquid-gas, 303.15 K [mN/m] | surface tension liquid-gas, 313.15 K [mN/m] | surface tension liquid-gas, 323.15 K [mN/m]
[1] | 1.33297 | 1.33196 | 1.33061 | 1.32904 | – | – | – | –
[2] | – | – | – | – | 72.7 | 71.1 | 69.6 | 67.8

[2], 99 kPa, Liquid
Conditions | viscosity [mPa·s]
293.15 K | 1.002
303.15 K | 0.797
313.15 K | 0.653
323.15 K | 0.547

Conditions | speed of sound [m/s]
[2], 313.15 K, 99 kPa, Liquid, Frequency=3 MHz, Sing-around technique in a fixed-path interferometer | 1529.2

Conditions | mass density [kg/m3]
[2], 323.15 K, 99 kPa, Liquid, Vibrating tube method | 988.04

O [water] + CCCC[n+]1ccccc1.F[B-](F)(F)F
Conditions | mass density, [3] [kg/m3] | refractive index, [4] | speed of sound, [3] [m/s] | surface tension liquid-gas, [3] [mN/m] | viscosity, [3] [mPa·s]
293.15 K | – | 1.33297 | – | 72.7 | 1.002
303.15 K | – | 1.33196 | – | 71.1 | 0.797
313.15 K | – | 1.33061 | 1529.2 | 69.6 | 0.653
323.15 K | 988.04 | 1.32904 | – | 67.8 | 0.547

O [water] + CCC[n+]1ccccc1.F[B-](F)(F)F
Conditions | mass density, [3] [kg/m3] | refractive index, [4] | speed of sound, [3] [m/s] | surface tension liquid-gas, [3] [mN/m] | viscosity, [3] [mPa·s]
293.15 K | – | 1.33297 | – | 72.7 | 1.002
303.15 K | – | 1.33196 | – | 71.1 | 0.797
313.15 K | – | 1.33061 | 1529.2 | 69.6 | 0.653
323.15 K | 988.04 | 1.32904 | – | 67.8 | 0.547
